Reference: patent US20190263796A1, “LIM KINASE INHIBITORS, PHARMACEUTICAL COMPOSITION AND METHOD OF USE IN LIMK-MEDIATED DISEASES” (CELLIPSE, priority 2016, published 2019)
pIC50: −log10 of the molar value. Each block holds one compound with its values, some of them ahead of it.

What was measured:
[1] = system: Phospho-Ser3-Cofilin/Total Cofilin; assay: Western blot cofilin phosphorylation, Kasumi-1; type: cell-based; details: Homo sapiens; Kasumi-1 cells; 2 h
Description: Kasumi-1 cell line was originally purchased from the American Type Culture Collection (ATCC). Kasumi-1 cells are cultured in RPMI 1640 20% (v/v) FBS supplemented with 100 U/mL^−1 penicillin, 0.1 mg·mL^−1 streptomycin (PAN Biotech P06-07100). Cells were maintained at 37° C. with 5% CO2.
In a 6 wells plate (Falcon 353046), 2·10^6 cells in 1.5 mL medium are treated for 2 h with compounds. Cells are then collected and cell lysis is performed at 4° C. using RIPA buffer supplemented with protease inhibitors cocktail (Sigma-Aldrich P8340) and phosphatase inhibitors cocktail (Sigma-Aldrich P5726). Following centrifugation 30 min 15000 g 4° C., supernatants are mixed with Laemmli buffer and denaturation is performed by heating 5 min 95° C. 10 μL of samples are subjected to electrophoresis on 15% SDS-PAGE. After electro-transfer (Mini Transblot, Bio-Rad), the PVDF membrane (Merck-Millipore Immobilon P IPVH00010) is blocked with Tris Buffered Saline, pH 7.4 (TBS) with 0.1% Tween 20 and 5% BSA for 1 h RT under agitation. […] For each concentration of compound, ratio between phosphorylated cofilin and total cofilin is determined. This ratio is then expressed as percentage of control ratio (i.e., ratio from DMSO treated cells). IC50 Phospho-Ser3-Cofilin/Total Cofilin is then determined.

Abl(h) = molecular target: T1, Abl(h) (Homo sapiens, UniProt P00519); assay: KinaseProfiler panel: Abl(h); type: biochemical; details: residual activity, 5 μM inhibitor, Km ATP
T1 construct: purchased Merck-Millipore (KinaseProfiler panel service)
Description: (§1) Kinase selectivity was performed on a panel of 58 recombinant protein kinases. The assays were performed in the presence of 5 μM inhibitor at the respective Km ATP for each kinase, using the KinaseProfiler panel service (Merck-Millipore). Residual activity measured in the presence of […] inhibitor is expressed as the percent of activity determined in the absence of inhibitor.

TrkC(h) = molecular target: T2, TrkC(h) (Homo sapiens, UniProt Q16288); assay: KinaseProfiler panel: TrkC(h); type: biochemical; details: residual activity, 5 μM inhibitor, Km ATP
T2 construct: purchased Merck-Millipore (KinaseProfiler panel service)
Description: as §1

cKit(D816V)(h) = molecular target: T3, cKit(D816V)(h) (Homo sapiens, UniProt P10721, D816V); assay: KinaseProfiler panel: cKit(D816V)(h); type: biochemical; details: residual activity, 5 μM inhibitor, Km ATP
T3 construct: purchased Merck-Millipore (KinaseProfiler panel service)
T3 sequence (P10721 26-976 D816V): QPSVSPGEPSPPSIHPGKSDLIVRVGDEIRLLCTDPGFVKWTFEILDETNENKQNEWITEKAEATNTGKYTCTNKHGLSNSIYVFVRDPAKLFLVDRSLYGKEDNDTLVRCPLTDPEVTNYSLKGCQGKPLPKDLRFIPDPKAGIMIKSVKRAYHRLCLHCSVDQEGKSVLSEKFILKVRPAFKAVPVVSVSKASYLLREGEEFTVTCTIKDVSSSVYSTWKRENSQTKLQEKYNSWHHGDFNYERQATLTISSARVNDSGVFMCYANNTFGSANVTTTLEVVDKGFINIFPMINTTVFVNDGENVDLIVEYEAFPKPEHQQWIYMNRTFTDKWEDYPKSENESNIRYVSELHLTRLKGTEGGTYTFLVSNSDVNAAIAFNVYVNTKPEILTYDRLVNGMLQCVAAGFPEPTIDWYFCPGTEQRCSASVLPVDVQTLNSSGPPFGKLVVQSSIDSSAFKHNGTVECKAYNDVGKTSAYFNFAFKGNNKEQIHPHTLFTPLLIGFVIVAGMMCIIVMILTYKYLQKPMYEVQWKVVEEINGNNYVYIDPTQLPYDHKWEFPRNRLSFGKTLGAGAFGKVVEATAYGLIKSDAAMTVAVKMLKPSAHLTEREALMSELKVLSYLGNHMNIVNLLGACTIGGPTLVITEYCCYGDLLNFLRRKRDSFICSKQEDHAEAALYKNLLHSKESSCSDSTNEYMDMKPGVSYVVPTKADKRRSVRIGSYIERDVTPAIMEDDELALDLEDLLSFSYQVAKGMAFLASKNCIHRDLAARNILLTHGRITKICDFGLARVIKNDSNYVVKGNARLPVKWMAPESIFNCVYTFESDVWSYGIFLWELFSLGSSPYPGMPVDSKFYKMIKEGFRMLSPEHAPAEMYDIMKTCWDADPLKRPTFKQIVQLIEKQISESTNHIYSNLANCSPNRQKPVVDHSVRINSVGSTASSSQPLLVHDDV
Description: as §1

cKit(h) = molecular target: T4, cKit(h) (Homo sapiens, UniProt P10721); assay: KinaseProfiler panel: cKit(h); type: biochemical; details: residual activity, 5 μM inhibitor, Km ATP
T4 construct: purchased Merck-Millipore (KinaseProfiler panel service)
T4 sequence (P10721 26-976): as the sequence (P10721 26-976 D816V) above, with V791D counted along it
Description: as §1

EGFR(h) = molecular target: T5, EGFR(h) (Homo sapiens, UniProt P00533); assay: KinaseProfiler panel: EGFR(h); type: biochemical; details: residual activity, 5 μM inhibitor, Km ATP
T5 construct: purchased Merck-Millipore (KinaseProfiler panel service)
Description: as §1

IKKα(h) = molecular target: T6, IKKα(h) (Homo sapiens, UniProt O15111); assay: KinaseProfiler panel: IKKα(h); type: biochemical; details: residual activity, 5 μM inhibitor, Km ATP
T6 construct: purchased Merck-Millipore (KinaseProfiler panel service)
Description: as §1

PAK1(h) = molecular target: T7, PAK1(h) (Homo sapiens, UniProt Q13153); assay: KinaseProfiler panel: PAK1(h); type: biochemical; details: residual activity, 5 μM inhibitor, Km ATP
T7 construct: purchased Merck-Millipore (KinaseProfiler panel service)
Description: as §1

Plk1(h) = molecular target: T8, Plk1(h) (Homo sapiens, UniProt P53350); assay: KinaseProfiler panel: Plk1(h); type: biochemical; details: residual activity, 5 μM inhibitor, Km ATP
T8 construct: purchased Merck-Millipore (KinaseProfiler panel service)
Description: as §1

Flt1(h) = molecular target: T9, Flt1(h) (Homo sapiens, UniProt P17948); assay: KinaseProfiler panel: Flt1(h); type: biochemical; details: residual activity, 5 μM inhibitor, Km ATP
T9 construct: purchased Merck-Millipore (KinaseProfiler panel service)
Description: as §1

SAPK2a(h) = molecular target: T10, SAPK2a(h) (Homo sapiens, UniProt Q16539); assay: KinaseProfiler panel: SAPK2a(h); type: biochemical; details: residual activity, 5 μM inhibitor, Km ATP
T10 construct: purchased Merck-Millipore (KinaseProfiler panel service)
T10 sequence (Q16539 whole entry): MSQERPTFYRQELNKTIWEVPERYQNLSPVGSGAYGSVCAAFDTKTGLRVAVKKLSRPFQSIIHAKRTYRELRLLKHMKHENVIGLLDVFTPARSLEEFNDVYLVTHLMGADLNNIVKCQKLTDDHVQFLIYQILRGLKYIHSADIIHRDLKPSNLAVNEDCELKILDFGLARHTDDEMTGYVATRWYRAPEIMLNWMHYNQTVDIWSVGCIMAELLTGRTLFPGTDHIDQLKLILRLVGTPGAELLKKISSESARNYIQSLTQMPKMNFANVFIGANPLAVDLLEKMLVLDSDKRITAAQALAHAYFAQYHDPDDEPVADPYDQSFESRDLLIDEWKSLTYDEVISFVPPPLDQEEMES
Description: as §1

c-RAF(h) = molecular target: T11, c-RAF(h) (Homo sapiens, UniProt P04049); assay: KinaseProfiler panel: c-RAF(h); type: biochemical; details: residual activity, 5 μM inhibitor, Km ATP
T11 construct: purchased Merck-Millipore (KinaseProfiler panel service)
Description: as §1

ALK(h) = molecular target: T12, ALK(h) (Homo sapiens, UniProt Q9UM73); assay: KinaseProfiler panel: ALK(h); type: biochemical; details: residual activity, 5 μM inhibitor, Km ATP
T12 construct: purchased Merck-Millipore (KinaseProfiler panel service)
T12 sequence (Q9UM73 19-1620): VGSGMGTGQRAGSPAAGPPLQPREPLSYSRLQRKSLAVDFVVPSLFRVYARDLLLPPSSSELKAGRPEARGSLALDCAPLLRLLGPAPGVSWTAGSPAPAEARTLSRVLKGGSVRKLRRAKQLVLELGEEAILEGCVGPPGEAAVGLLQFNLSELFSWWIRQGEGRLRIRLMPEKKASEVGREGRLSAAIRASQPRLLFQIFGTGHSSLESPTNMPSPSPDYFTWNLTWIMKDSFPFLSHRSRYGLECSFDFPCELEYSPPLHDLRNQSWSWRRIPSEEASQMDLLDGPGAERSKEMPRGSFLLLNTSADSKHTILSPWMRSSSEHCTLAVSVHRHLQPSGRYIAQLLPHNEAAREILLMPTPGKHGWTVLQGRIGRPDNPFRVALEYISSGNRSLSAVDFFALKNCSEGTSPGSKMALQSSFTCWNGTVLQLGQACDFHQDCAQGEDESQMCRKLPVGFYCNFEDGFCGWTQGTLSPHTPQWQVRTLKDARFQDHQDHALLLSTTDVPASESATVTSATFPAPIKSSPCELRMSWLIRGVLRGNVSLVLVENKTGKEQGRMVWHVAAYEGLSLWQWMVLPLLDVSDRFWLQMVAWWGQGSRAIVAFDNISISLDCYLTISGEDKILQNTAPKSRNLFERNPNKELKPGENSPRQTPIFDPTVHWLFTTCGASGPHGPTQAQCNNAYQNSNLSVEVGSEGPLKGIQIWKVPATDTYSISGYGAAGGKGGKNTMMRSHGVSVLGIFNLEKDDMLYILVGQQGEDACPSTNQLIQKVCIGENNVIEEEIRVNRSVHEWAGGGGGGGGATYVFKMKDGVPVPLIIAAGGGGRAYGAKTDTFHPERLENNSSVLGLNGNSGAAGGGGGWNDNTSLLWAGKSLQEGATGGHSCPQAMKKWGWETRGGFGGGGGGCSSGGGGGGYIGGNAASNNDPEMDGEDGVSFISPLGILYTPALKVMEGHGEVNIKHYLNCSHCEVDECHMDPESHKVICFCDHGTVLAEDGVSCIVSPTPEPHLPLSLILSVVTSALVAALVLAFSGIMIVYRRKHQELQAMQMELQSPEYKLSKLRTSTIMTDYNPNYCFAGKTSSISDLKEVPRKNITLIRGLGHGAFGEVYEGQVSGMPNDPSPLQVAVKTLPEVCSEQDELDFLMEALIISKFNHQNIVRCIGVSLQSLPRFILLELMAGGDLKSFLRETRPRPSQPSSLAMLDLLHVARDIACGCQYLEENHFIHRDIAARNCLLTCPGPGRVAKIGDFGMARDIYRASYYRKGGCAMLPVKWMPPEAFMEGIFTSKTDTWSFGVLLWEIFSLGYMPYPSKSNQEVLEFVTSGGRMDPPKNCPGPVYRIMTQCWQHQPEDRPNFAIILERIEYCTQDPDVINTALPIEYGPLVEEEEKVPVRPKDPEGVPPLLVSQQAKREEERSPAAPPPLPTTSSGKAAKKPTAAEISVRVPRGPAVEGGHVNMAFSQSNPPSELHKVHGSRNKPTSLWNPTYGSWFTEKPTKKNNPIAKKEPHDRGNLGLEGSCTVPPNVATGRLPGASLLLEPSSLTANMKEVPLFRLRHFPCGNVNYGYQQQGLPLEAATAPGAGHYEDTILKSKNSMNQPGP
Description: as §1

ROCK-I(h) = molecular target: T13, ROCK-I(h) (Homo sapiens, UniProt Q13464); assay: KinaseProfiler panel: ROCK-I(h); type: biochemical; details: residual activity, 5 μM inhibitor, Km ATP
T13 construct: purchased Merck-Millipore (KinaseProfiler panel service)
Description: as §1

ROCK-II(h) = molecular target: T14, ROCK-II(h) (Homo sapiens, UniProt O75116); assay: KinaseProfiler panel: ROCK-II(h); type: biochemical; details: residual activity, 5 μM inhibitor, Km ATP
T14 construct: purchased Merck-Millipore (KinaseProfiler panel service)
T14 sequence (O75116 whole entry): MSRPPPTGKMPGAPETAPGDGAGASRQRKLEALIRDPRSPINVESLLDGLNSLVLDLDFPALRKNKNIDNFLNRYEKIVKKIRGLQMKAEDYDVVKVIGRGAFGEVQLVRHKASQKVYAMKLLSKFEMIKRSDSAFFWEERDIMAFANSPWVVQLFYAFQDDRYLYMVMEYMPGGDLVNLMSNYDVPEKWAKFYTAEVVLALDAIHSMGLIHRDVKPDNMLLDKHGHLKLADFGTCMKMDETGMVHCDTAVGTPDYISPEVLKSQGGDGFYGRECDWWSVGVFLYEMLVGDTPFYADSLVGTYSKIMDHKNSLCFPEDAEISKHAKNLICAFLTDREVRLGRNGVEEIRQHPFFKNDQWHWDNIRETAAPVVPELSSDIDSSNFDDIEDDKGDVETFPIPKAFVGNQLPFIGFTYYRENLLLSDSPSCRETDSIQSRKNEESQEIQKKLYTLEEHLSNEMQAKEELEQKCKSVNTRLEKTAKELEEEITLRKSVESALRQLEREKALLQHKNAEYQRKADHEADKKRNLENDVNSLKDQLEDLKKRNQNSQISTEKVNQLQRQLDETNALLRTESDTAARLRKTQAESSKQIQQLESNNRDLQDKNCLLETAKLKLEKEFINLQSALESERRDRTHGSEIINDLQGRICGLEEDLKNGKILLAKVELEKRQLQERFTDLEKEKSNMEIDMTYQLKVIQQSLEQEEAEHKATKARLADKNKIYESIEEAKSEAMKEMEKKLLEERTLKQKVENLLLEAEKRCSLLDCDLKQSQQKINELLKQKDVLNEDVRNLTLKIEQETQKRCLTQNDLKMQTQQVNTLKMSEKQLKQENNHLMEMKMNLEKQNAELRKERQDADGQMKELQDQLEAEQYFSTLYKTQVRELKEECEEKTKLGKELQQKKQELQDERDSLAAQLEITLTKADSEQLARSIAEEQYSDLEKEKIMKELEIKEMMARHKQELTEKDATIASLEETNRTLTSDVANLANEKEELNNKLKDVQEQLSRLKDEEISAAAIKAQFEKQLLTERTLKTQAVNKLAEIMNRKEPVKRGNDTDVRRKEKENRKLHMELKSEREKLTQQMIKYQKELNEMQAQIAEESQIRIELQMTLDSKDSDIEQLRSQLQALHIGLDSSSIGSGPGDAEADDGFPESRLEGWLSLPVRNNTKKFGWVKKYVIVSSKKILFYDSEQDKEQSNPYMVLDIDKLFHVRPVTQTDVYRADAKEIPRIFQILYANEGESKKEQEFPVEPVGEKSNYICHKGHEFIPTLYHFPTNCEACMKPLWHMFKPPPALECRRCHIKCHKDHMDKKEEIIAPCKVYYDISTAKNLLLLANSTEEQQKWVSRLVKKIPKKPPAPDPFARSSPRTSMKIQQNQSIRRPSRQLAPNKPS
Description: as §1

PKCα(h) = molecular target: T15, PKCα(h) (Homo sapiens, UniProt P17252); assay: KinaseProfiler panel: PKCα(h); type: biochemical; details: residual activity, 5 μM inhibitor, Km ATP
T15 construct: purchased Merck-Millipore (KinaseProfiler panel service)
Description: as §1

CaMKIβ(h) = molecular target: T16, CaMKIβ(h) (Homo sapiens, UniProt Q6P2M8); assay: KinaseProfiler panel: CaMKIβ(h); type: biochemical; details: residual activity, 5 μM inhibitor, Km ATP
T16 construct: purchased Merck-Millipore (KinaseProfiler panel service)
Description: as §1

PAK4(h) = molecular target: T17, PAK4(h) (Homo sapiens, UniProt O96013); assay: KinaseProfiler panel: PAK4(h); type: biochemical; details: residual activity, 5 μM inhibitor, Km ATP
T17 construct: purchased Merck-Millipore (KinaseProfiler panel service)
T17 sequence (O96013 whole entry): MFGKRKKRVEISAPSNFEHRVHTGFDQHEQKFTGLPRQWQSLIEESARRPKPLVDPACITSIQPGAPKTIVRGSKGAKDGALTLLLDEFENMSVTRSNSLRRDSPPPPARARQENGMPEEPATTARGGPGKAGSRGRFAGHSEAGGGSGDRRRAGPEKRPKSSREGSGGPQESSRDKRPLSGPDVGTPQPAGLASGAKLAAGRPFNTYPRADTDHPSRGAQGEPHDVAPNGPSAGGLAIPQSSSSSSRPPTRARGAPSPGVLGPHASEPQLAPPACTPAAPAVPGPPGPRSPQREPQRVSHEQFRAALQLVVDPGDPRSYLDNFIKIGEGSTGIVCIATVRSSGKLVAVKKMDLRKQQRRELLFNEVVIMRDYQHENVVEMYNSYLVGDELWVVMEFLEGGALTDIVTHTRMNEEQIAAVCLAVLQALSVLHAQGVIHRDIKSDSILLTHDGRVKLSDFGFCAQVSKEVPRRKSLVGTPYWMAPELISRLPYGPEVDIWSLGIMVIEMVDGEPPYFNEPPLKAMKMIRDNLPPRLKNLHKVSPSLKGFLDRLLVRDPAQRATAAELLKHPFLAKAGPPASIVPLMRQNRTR
Description: as §1

PDGFRα(h) = molecular target: T18, PDGFRα(h) (Homo sapiens, UniProt P16234); assay: KinaseProfiler panel: PDGFRα(h); type: biochemical; details: residual activity, 5 μM inhibitor, Km ATP
T18 construct: purchased Merck-Millipore (KinaseProfiler panel service)
Description: as §1

Flt3(D835Y)(h) = molecular target: T19, Flt3(D835Y)(h) (Homo sapiens, UniProt P36888, D835Y); assay: KinaseProfiler panel: Flt3(D835Y)(h); type: biochemical; details: residual activity, 5 μM inhibitor, Km ATP
T19 construct: purchased Merck-Millipore (KinaseProfiler panel service)
Description: as §1

[2] = molecular target: T20, recombinant human LIMK2 fragment 1-638 (Homo sapiens, UniProt P53671); assay: LIMK2 kinase assay (Compound 1), anti-phospho-Ser3-cofilin detection; type: biochemical; details: 360 μM ATP; GST-cofilin 1 substrate; chemiluminescence detection
T20 construct: recombinant human LIMK2 fragment 1-638; 6His (N); purchased Carna Biosciences 09-106
Description: Compounds were tested in a LIMK2 assay performed in a final volume of 12.5 μl containing 1.5 μl of compound or equivalent amount of DMSO as control, 1 μl (6.25 ng) of N-terminal 6His-tagged recombinant human LIMK2 fragment 1-638 (Carna Biosciences #09-106, in 20 mM MOPS pH=7.0, 1 mM EDTA, 0.01% NP-40, 5% glycerol, 0.1% 2-mercaptoethanol, 1 mg·mL^−1 Bovine Serum Albumin) and a mixture containing 8 mM MOPS pH=7.0, 200 μM EDTA, 110 μM of recombinant GST-cofilin 1, 10 mM MgCl2, and 360 μM ATP. Assays were performed at 30° C. for 10 min before termination by the addition of 40 μl of Laemmli buffer. Samples are then diluted into 1500 μL H2O and 100 μL are then diluted with 200 μL TBS. 5 μL are then spotted on a PVDF membrane (Merck-Millipore Immobilon P IPVH00010). After 20 min incubation RT, membrane was blocked with TBS, 0.1% Tween 20 and 5% BSA for 1 h RT under agitation. The membrane was rinsed 3 times 10 min RT under agitation with TBS, 0.1% Tween-20 (TBST) and then 1 h RT with anti-phospho-Ser3-cofilin (Cell Signaling Technology #3313, 1/1000 dilution) antibody diluted in TBS, 0.1% Tween 20 and 1% BSA. The membrane is then rinsed 3 times 10 min RT under agitation in TBST and incubated for 1 hour with anti-rabbit secondary antibody, horseradish peroxidase conjugated (Jackson Immunoresearch #711-036-152) under agitation at room temperature. […] IC50 LIMK2 is then determined.

B-Raf(V599E)(h) = molecular target: T21, B-Raf(V599E)(h) (Homo sapiens, UniProt P15056, V600E); assay: KinaseProfiler panel: B-Raf(V599E)(h); type: biochemical; details: residual activity, 5 μM inhibitor, Km ATP
T21 construct: purchased Merck-Millipore (KinaseProfiler panel service)
Description: as §1

AMPKα1(h) = molecular target: T22, AMPKα1(h) (Homo sapiens, UniProt Q13131); assay: KinaseProfiler panel: AMPKα1(h); type: biochemical; details: residual activity, 5 μM inhibitor, Km ATP
T22 construct: purchased Merck-Millipore (KinaseProfiler panel service)
Description: as §1

TrkB(h) = molecular target: T23, TrkB(h) (Homo sapiens, UniProt Q16620); assay: KinaseProfiler panel: TrkB(h); type: biochemical; details: residual activity, 5 μM inhibitor, Km ATP
T23 construct: purchased Merck-Millipore (KinaseProfiler panel service)
Description: as §1

JAK2(h) = molecular target: T24, JAK2(h) (Homo sapiens, UniProt O60674); assay: KinaseProfiler panel: JAK2(h); type: biochemical; details: residual activity, 5 μM inhibitor, Km ATP
T24 construct: purchased Merck-Millipore (KinaseProfiler panel service)
Description: as §1

pIC50 [1]: > 6.70
SMILES: O=S(=O)(Nc1cccc(-c2nc(CCO)sc2-c2ccnc(Nc3ccccc3)n2)c1F)c1c(F)cccc1F [8 (Na)]

SMILES: CC(C)(C)c1nc(-c2cccc(NS(=O)(=O)c3c(F)cccc3F)c2F)c(-c2ccnc(Nc3ccccc3)n2)s1 [Compound 1, N-(3-(2-(tert-butyl)-5-(2-(phenylamino)pyrimidin-4-yl)thiazol-4-yl)-2-fluorophenyl)-2,6-difluorobenzenesulfonamide]
activity at 5 µM (Abl(h)): ≥ 50% | activity at 5 µM (TrkC(h)): ≥ 50% | activity at 5 µM (cKit(D816V)(h)): ≥ 50% | activity at 5 µM (cKit(h)): ≥ 50% | activity at 5 µM (EGFR(h)): ≥ 50% | activity at 5 µM (IKKα(h)): ≥ 50% | activity at 5 µM (PAK1(h)): ≥ 50% | activity at 5 µM (Plk1(h)): ≥ 50% | activity at 5 µM (Flt1(h)): 10 to 50% | activity at 5 µM (SAPK2a(h)): ≥ 50% | activity at 5 µM (c-RAF(h)): 3 to 10% | activity at 5 µM (ALK(h)): ≥ 50% | activity at 5 µM (ROCK-I(h)): ≥ 50% | activity at 5 µM (ROCK-II(h)): ≥ 50% | activity at 5 µM (PKCα(h)): ≥ 50% | activity at 5 µM (CaMKIβ(h)): ≥ 50% | activity at 5 µM (PAK4(h)): ≥ 50% | activity at 5 µM (PDGFRα(h)): ≥ 50% | activity at 5 µM (Flt3(D835Y)(h)): ≥ 50% | pIC50 [2]: 6.30 to 7.00 | activity at 5 µM (B-Raf(V599E)(h)): 3 to 10% | activity at 5 µM (AMPKα1(h)): ≥ 50% | activity at 5 µM (TrkB(h)): ≥ 50% | activity at 5 µM (JAK2(h)): ≥ 50%
